Entries after “also recorded” stand apart in the source; their conditions may differ.
Experiments:
[1] = Cellular toxicity assay, Huh-7 cells; type: cell-based; conditions: human, compared to cycloheximide (+ control)
Description: The toxicity of the compounds was assessed in human PBM, CEM (human lymphoblastoid), and Huh-7 cells, as described previously (see Schinazi R. F., Sommadossi J.-P., Saalmann V., Cannon D. L., Xie M.-Y., Hart G. C., Smith G. A. & Hahn E. F. Antimicrob. Agents Chemother. 1990, 34, 1061-67). Cycloheximide was included as positive cytotoxic control, and untreated cells exposed to solvent were included as negative controls. The cytotoxicity IC50 was obtained from the concentration-response curve using the median effective method described previously (see Chou T.-C. & Talalay P. Adv. Enzyme Regul. 1984, 22, 27-55; Belen'kii M. S. & Schinazi R. F. Antiviral Res. 1994, 25, 1-11).

[2] = tested on: atherogenic diet C57BL/6 mice; experiment: Atherogenic (fibrotic) diet mouse model; type: in vivo
Description: (§1) Male C57BL/6J mice, 7 to 8 weeks old, were housed randomly in standard cages and were fed a HFD, or atherogenic diet (consisting 1% Chol and 0.5% cholic acid, see also Table 6). All mice had free access to water during the experimental period. During the feeding period body weight was monitored every 3 days. In the HFD experiment, after 4 or 6 weeks, the resultant obese mice were treated with antagomiR-122 (5 μg/mouse once a week for 3 weeks), or i.p. injected with Compound 1 (RORα agonist, 7.5 mg/kg twice a week for 3 weeks; or 15 mg/kg 3 times a week for 3 weeks). The obese control (HFD) group was administered only saline with DMSO and antagomiR-control. After 3 weeks of treatment mice were sacrificed and livers were taken for RNA-seq analysis. Livers, white adipose, and skeletal muscle tissues were frozen in liquid nitrogen or in optimum cutting temperature embedded frozen blocks, for further RNA and histologic analysis. In the atherogenic diet experiment mice were treated with 15 mg/kg Compound 1 after 3 weeks with the diet. After 3.5 weeks of treatment, mice were sacrificed, and the livers were frozen in liquid nitrogen or in optimum cutting temperature embedded frozen blocks. Plasma was collected from atherogenic diet-fed mice and saved in −20° C. for ALT and AST analysis using the Reflotron® Analyzer and test-strips (Roche).
Livers and adipose samples were placed in 4% buffered formaldehyde for 24 hours, followed by 80% ethanol and then embedded in paraffin blocks. Liver and adipose tissues were cut into […], deparaffinized with xylene and hydrated through graded ethanol. For the H&E staining, tissue sections were stained with hematoxylin (Emmonya Biotech Ltd.) and eosin (Leica, Surgipath). Liver macrophages were stained using rat anti-mouse F4/80 antigen (Serotec), followed by anti-Rat HRP (Histofine) and developed with a DAB kit (Zymed). Liver sections were stained for Masson Trichrome (Sigma). Liver CD3+ T cells were stained using Rat anti human-CD3-antibody (Bio-Rad), followed by anti-Rat HRP (Histofine) and developed with AEC (Invitrogen). α-SMA positive cells were stained using mouse anti-Human smooth Muscle Actin antibody (Dako), followed by anti-mouse HRP (Dako) and developed with DAB. The percentage area stained positively per high power field was calculated by ImageJ Software in 5-10 random fields.
Experimental design: C57BL/6 mice fed for 3 weeks with atherogenic diet (to induce fibrosis) and injected with 15 mg/kg Compound 1 (or saline+DMSO) 3 times a week for 3.5 week (n=8).
After 3 weeks of treatment mice were sacrificed and livers were taken for RNA-seq analysis. Livers, gonadal white adipose, and skeletal muscle tissues were frozen in liquid nitrogen or in optimum cutting temperature embedded frozen blocks, for further RNA and histologic analysis. In the atherogenic diet experiment mice were treated with 15 mg/kg Compound 1 after 3 weeks with the diet. After 3.5 weeks of treatment, mice were sacrificed, and the livers were frozen in liquid nitrogen or in optimum cutting temperature embedded frozen blocks. Plasma was collected from atherogenic diet-fed mice and stored at −20° C. for ALT and AST analysis using the Reflotron® Analyzer and test-strips (Roche).

[3] = tested on: high fat diet (HFD) C57BL/6 mice; experiment: HFD-fed C57BL/6 mice, 15 mg/kg Compound 1 (Example 8); type: in vivo
Description: as §1
Experimental design: C57BL/6 mice fed for 6 weeks with high fat diet (HFD) were injected with 15 mg/kg Compound 1 (or saline+DMSO) 3 times a week for 3 weeks (n=6).

[4] = tested on: Sgp130FC mice; experiment: Sgp130FC mice treated with Compound 1; type: in vivo; conditions: 7.5 mg/kg ip twice/week, four weeks
Description: Sgp130FC mice were injected (ip) with Compound 1 for four weeks (7.5 mg/kg, twice/week). FIGS. 6A-6B show the qRT-PCR analysis of miR-122 levels in plasma (6A), and in the livers (6B) after 4 weeks treatment with saline (as a control) and Compound 1. MicroRNA-18 was used as a negative control and its plasma and liver levels were not affected following treatment with Compound 1. The effect seen on this microRNA in FIG. 6A is not significant compared to the significant effect seen on miR-122.
Compound 1 and AntagomiR injections to mice. C57BL/6 male mice, 7-8 weeks old, or Sgp130FC, 9-month-old male mice, were injected i.p. with 7.5 mg/kg Compound 1 dissolved in saline and 3% DMSO. Saline was injected as control. Mice were hydrodynamic tail vain injected with antagomiR-122 or antagomiR-control (negative control) (5 μg/mouse in 1.5 ml saline). Mice were sacrificed according to the legend of the figure describing the experimental results and the livers, white adipose and skeletal muscle tissues were frozen in liquid nitrogen or in OCT embedded frozen blocks, for further RNA and histologic analysis. AntagomiRs were obtained from Sigma Aldrich, see Table 3.

[5] = atherogenic diet, 15 mg/kg 3 times a week for 3.5 weeks
[6] = atherogenic diet, 3 times weekly for 3.5 weeks
[7] = liver, atherogenic diet, 15 mg/kg 3 times a week for 3.5 weeks

Question: For O=C1Nc2cc(C(=O)N3CCC(Cc4ccccc4)CC3)ccc2Nc2ccccc21 [Compound 1], which CC50 [1] is on record?
Answer: 10.4 µM

Question: And the “Liver vasculature by CD34 staining” value ([2]; atherogenic diet)?
Answer: no effect

Question: And the “NK cells in the livers” value ([2]; atherogenic diet)?
Answer: significant reduction in NK cells

Question: What about the “Biomarkers of inflammation (Tgfb2 and TgfbR2) and fibrosis (Acta1, Col1A1 and Col3A1), liver mRNA” value [2, 5] of the same compound?
Answer: reducing

Question: What about the “Mature miR-122 in tissue (liver) and plasma” value [2, 5] of the same compound?
Answer: increased

Question: What about the “ALT and AST plasma levels (liver enzymes)” value ([2]; atherogenic diet, 15 mg/kg 3 times a week for 3.5 weeks, 15 mg/kg) of the same compound?
Answer: significantly improved; also recorded: reducing significantly

Question: And the “Liver fibrosis (Masson Trichrome and αSMA staining)” value [2, 6]?
Answer: significant reduction in liver fibrosis

Question: And the “Liver inflammation (H&E, CD3 and F4/80 staining)” value [2, 6]?
Answer: significantly improved liver inflammation; also recorded: improved liver inflammation significantly

Question: What about the “Immune infiltrate by H&E staining” value [2, 7] of the same compound?
Answer: decreased immune infiltrate

Question: What about the “Myeloid infiltrate by F4/80 staining” value [2, 7] of the same compound?
Answer: decreased levels of myeloid infiltrate

Question: And the “T-cell density by CD3 staining” value [2, 7]?
Answer: decreased T-cell density

Question: What about the “Reduction of fibrotic area, Masson Trichrome (M.T)” value ([2]; liver, versus untreated cohort) of the same compound?
Answer: 5 fold

Question: And the “Reduction of fibrotic area, α-SMA” value ([2]; liver, versus untreated cohort)?
Answer: 7 fold

Question: And the “Expression of RORα-regulated genes FGF21 and Gpase6” value ([3]; HFD 6 weeks, 15 mg/kg 3 times a week for 3 weeks, liver)?
Answer: significantly induced expression

Question: And the “miR-122 and precursors in plasma and liver” value ([3]; HFD 6 weeks, 15 mg/kg 3 times a week for 3 weeks, 15 mg/kg)?
Answer: induced expression and secretion; also recorded: increased

Question: What about the “Hepatic synthesis of triglycerides” value ([3]; mice fed a HFD or atherogenic diet) of the same compound?
Answer: reduced hepatic synthesis of triglycerides

Question: And the “Liver and muscle triglyceride levels” value [4]?
Answer: reduces liver and muscle triglyceride levels

Question: And the “MicroRNA-18 plasma and liver levels (negative control)” value [4]?
Answer: not affected

Question: What about the “miR-122 expression (plasma, liver)” value [4] of the same compound?
Answer: increases miR-122 expression

Source: patent US20250339445A1, “Modulators of Orphan Nuclear Receptors for Treating Pancreatitis, Glioblastoma, Sarcopenia and Stroke” (Emory University, priority 2020, published 2025)
